Assay results taken from PubChem BioAssay (NCI).
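48-hour exposure; five concentrations; linearly interpolated endpoints. TGI denotes the concentration required for complete inhibition of growth.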

Legend:
Assay in all cases: NCI tumour cell line growth inhibition, 48 h
SR leukemia = tested on: SR leukemia
HS 578T breast = tested on: HS 578T breast
A549 NSCLC = tested on: A549 NSCLC
U251 CNS = tested on: U251 CNS
NCI-H23 lung = tested on: NCI-H23 lung
T-47D breast = tested on: T-47D breast
BT-549 breast = tested on: BT-549 breast
DU-145 prostate = tested on: DU-145 prostate
KM12 colon = tested on: KM12 colon
SK-MEL-5 melanoma = tested on: SK-MEL-5 melanoma
NCI-H226 lung = tested on: NCI-H226 lung
MDA-N = tested on: MDA-N
NCI-H522 lung = tested on: NCI-H522 lung
EKVX NSCLC = tested on: EKVX NSCLC
SF-268 CNS = tested on: SF-268 CNS
PC-3 prostate = tested on: PC-3 prostate
COLO 205 colon = tested on: COLO 205 colon
SW-620 colon = tested on: SW-620 colon
SK-OV-3 ovarian = tested on: SK-OV-3 ovarian
786-0 renal = tested on: 786-0 renal
SNB-19 CNS = tested on: SNB-19 CNS
TK-10 renal = tested on: TK-10 renal
MOLT-4 leukemia = tested on: MOLT-4 leukemia
OVCAR-8 ovarian = tested on: OVCAR-8 ovarian
HL-60(TB) leukemia = tested on: HL-60(TB) leukemia
MDA-MB-435 = tested on: MDA-MB-435
LOX IMVI melanoma = tested on: LOX IMVI melanoma
NCI/ADR-RES ovarian = tested on: NCI/ADR-RES ovarian
UO-31 renal = tested on: UO-31 renal
HOP-92 NSCLC = tested on: HOP-92 NSCLC
OVCAR-3 ovarian = tested on: OVCAR-3 ovarian
CAKI-1 renal = tested on: CAKI-1 renal
M14 melanoma = tested on: M14 melanoma
IGROV1 ovarian = tested on: IGROV1 ovarian
HT29 colon = tested on: HT29 colon
MCF7 breast = tested on: MCF7 breast
RXF 393 renal = tested on: RXF 393 renal
SNB-75 CNS = tested on: SNB-75 CNS
ACHN renal = tested on: ACHN renal
MDA-MB-231 breast = tested on: MDA-MB-231 breast
SF-539 CNS = tested on: SF-539 CNS
A498 renal = tested on: A498 renal
K-562 leukemia = tested on: K-562 leukemia
SF-295 CNS = tested on: SF-295 CNS
SK-MEL-28 melanoma = tested on: SK-MEL-28 melanoma
RPMI-8226 leukemia = tested on: RPMI-8226 leukemia
HCT-15 colon = tested on: HCT-15 colon
OVCAR-4 ovarian = tested on: OVCAR-4 ovarian
HOP-62 NSCLC = tested on: HOP-62 NSCLC
UACC-62 melanoma = tested on: UACC-62 melanoma
OVCAR-5 ovarian = tested on: OVCAR-5 ovarian
MALME-3M melanoma = tested on: MALME-3M melanoma
NCI-H460 lung = tested on: NCI-H460 lung
HCT-116 colon = tested on: HCT-116 colon
SN12C renal = tested on: SN12C renal
HCC-2998 colon = tested on: HCC-2998 colon
CCRF-CEM leukemia = tested on: CCRF-CEM leukemia
UACC-257 melanoma = tested on: UACC-257 melanoma
SK-MEL-2 melanoma = tested on: SK-MEL-2 melanoma

CC(NC(=O)C(Cc1ccc(OC(=O)c2ccccc2)cc1)NC(=O)OC(C)(C)C)C(=O)NCC(=O)NC(Cc1ccccc1)C(=O)NN (stereo not drawn)
TGI (SR leukemia): 56.9 µM | TGI (HS 578T breast): > 100 µM | TGI (A549 NSCLC): > 100 µM | TGI (U251 CNS): > 100 µM | TGI (NCI-H23 lung): > 100 µM | TGI (T-47D breast): > 100 µM | TGI (BT-549 breast): > 100 µM | TGI (DU-145 prostate): > 100 µM | TGI (KM12 colon): > 100 µM | TGI (SK-MEL-5 melanoma): > 100 µM | TGI (NCI-H226 lung): > 100 µM | TGI (MDA-N): > 100 µM | TGI (NCI-H522 lung): > 100 µM | TGI (EKVX NSCLC): > 100 µM | TGI (SF-268 CNS): > 100 µM | TGI (PC-3 prostate): > 100 µM | TGI (COLO 205 colon): 53.2 µM | TGI (SW-620 colon): > 100 µM | TGI (SK-OV-3 ovarian): > 100 µM | TGI (786-0 renal): > 100 µM | TGI (SNB-19 CNS): > 100 µM | TGI (TK-10 renal): > 100 µM | TGI (MOLT-4 leukemia): 69.4 µM | TGI (OVCAR-8 ovarian): > 100 µM | TGI (HL-60(TB) leukemia): 41.5 µM | TGI (MDA-MB-435): > 100 µM | TGI (LOX IMVI melanoma): 45 µM | TGI (NCI/ADR-RES ovarian): > 100 µM | TGI (UO-31 renal): > 100 µM | TGI (HOP-92 NSCLC): > 100 µM | TGI (OVCAR-3 ovarian): > 100 µM | TGI (CAKI-1 renal): > 100 µM | TGI (M14 melanoma): > 100 µM | TGI (IGROV1 ovarian): > 100 µM | TGI (HT29 colon): > 100 µM | TGI (MCF7 breast): > 100 µM | TGI (RXF 393 renal): > 100 µM | TGI (SNB-75 CNS): > 100 µM | TGI (ACHN renal): > 100 µM | TGI (MDA-MB-231 breast): > 100 µM | TGI (SF-539 CNS): > 100 µM | TGI (A498 renal): > 100 µM | TGI (K-562 leukemia): 76.4 µM | TGI (SF-295 CNS): > 100 µM | TGI (SK-MEL-28 melanoma): > 100 µM | TGI (RPMI-8226 leukemia): 38.1 µM | TGI (HCT-15 colon): > 100 µM | TGI (OVCAR-4 ovarian): > 100 µM | TGI (HOP-62 NSCLC): > 100 µM | TGI (UACC-62 melanoma): > 100 µM | TGI (OVCAR-5 ovarian): > 100 µM | TGI (MALME-3M melanoma): > 100 µM | TGI (NCI-H460 lung): > 100 µM | TGI (HCT-116 colon): > 100 µM

O=P(O)(O)CN1CCNCCN(CP(=O)(O)O)CC1
TGI (SR leukemia): > 90.6 µM | TGI (SN12C renal): > 100 µM | TGI (HS 578T breast): > 100 µM | TGI (A549 NSCLC): 58.7 µM | TGI (U251 CNS): > 100 µM | TGI (NCI-H23 lung): > 100 µM | TGI (T-47D breast): > 100 µM | TGI (BT-549 breast): > 100 µM | TGI (HCC-2998 colon): > 100 µM | TGI (DU-145 prostate): > 100 µM | TGI (KM12 colon): > 100 µM | TGI (SK-MEL-5 melanoma): 71.8 µM | TGI (NCI-H226 lung): > 86.8 µM | TGI (MDA-N): > 72.9 µM | TGI (NCI-H522 lung): > 100 µM | TGI (EKVX NSCLC): > 100 µM | TGI (SF-268 CNS): > 100 µM | TGI (PC-3 prostate): > 100 µM | TGI (COLO 205 colon): 18.7 µM | TGI (SW-620 colon): > 100 µM | TGI (SK-OV-3 ovarian): > 100 µM | TGI (786-0 renal): > 100 µM | TGI (SNB-19 CNS): > 100 µM | TGI (TK-10 renal): > 100 µM | TGI (MOLT-4 leukemia): > 100 µM | TGI (CCRF-CEM leukemia): > 70.5 µM | TGI (OVCAR-8 ovarian): > 51 µM | TGI (HL-60(TB) leukemia): 18.2 µM | TGI (UACC-257 melanoma): > 100 µM | TGI (MDA-MB-435): > 100 µM | TGI (LOX IMVI melanoma): > 100 µM | TGI (NCI/ADR-RES ovarian): > 44.9 µM | TGI (UO-31 renal): > 100 µM | TGI (HOP-92 NSCLC): > 100 µM | TGI (OVCAR-3 ovarian): > 100 µM | TGI (CAKI-1 renal): > 100 µM | TGI (M14 melanoma): > 100 µM | TGI (IGROV1 ovarian): > 100 µM | TGI (HT29 colon): > 100 µM | TGI (MCF7 breast): > 100 µM | TGI (RXF 393 renal): > 100 µM | TGI (SNB-75 CNS): > 100 µM | TGI (ACHN renal): > 100 µM | TGI (MDA-MB-231 breast): > 100 µM | TGI (SK-MEL-2 melanoma): > 100 µM | TGI (SF-539 CNS): > 100 µM | TGI (A498 renal): > 100 µM | TGI (K-562 leukemia): > 76.6 µM | TGI (SF-295 CNS): > 100 µM | TGI (SK-MEL-28 melanoma): > 100 µM | TGI (RPMI-8226 leukemia): > 100 µM | TGI (HCT-15 colon): > 100 µM | TGI (OVCAR-4 ovarian): > 100 µM | TGI (HOP-62 NSCLC): > 100 µM | TGI (UACC-62 melanoma): > 100 µM | TGI (OVCAR-5 ovarian): > 100 µM | TGI (MALME-3M melanoma): > 100 µM | TGI (NCI-H460 lung): > 100 µM | TGI (HCT-116 colon): > 38 µM
